This is an account of results in US9284321B2, “Piperazino[1,2-a]indol-1-ones and [1,4]diazepino[1,2-a]indol-1-one” (Hoffmann-La Roche Inc., priority 2012, dated 2016).

Data set [1] deals with human embryonic stem cell derived neural stem cells (NSCs). The data set can be described thus: Neural Stem Cell Proliferation Assay (neurogenesis assay, ATP levels by CellTiterGlo). Type of data set: cell-based. The settings on record: 96 h, compound concentration at which 150% activity of control (100%) is reached, NSC proliferation by ATP level after 4 days incubation, dose response 8 μM to 8 nM. The gist of the method:
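Read-out is CellTiterGlo ATP luminescence after 4-day culture (37 °C, 5% CO2) of dual-SMAD-derived human ESC NSCs, dosed 4 h post-seeding at 8 μM to 8 nM (11 points, 2-fold). EC150 marks the concentration reaching 150% of the media-only control (0.25% DMSO).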
(ATP-based viability assays read luminescence as a measure of living cells.)

Usually melting point stands for the temperature, or range, at which the solid turns liquid. `N#Cc1cc(-c2ccc(C(F)(F)F)cc2)c2c(c1)cc1n2CCCNC1=O` [Example 218, 1-Oxo-7-[4-(trifluoromethyl)-phenyl]-2,3,4,5-tetrahydro-[1,4]diazepino[1,2-a]indole-9-carbonitrile] had a melting point of 241.5 °C. In data set [1], the EC (150% of control) is 0.45 µM.
The molecule `N#Cc1cc(-c2ccc(Cl)cc2F)c2c(c1)cc1n2CCCNC1=O` [Example 219, 7-(4-Chloro-2-fluorophenyl)-1-oxo-2,3,4,5-tetrahydro-[1,4]diazepino[1,2-a]indole-9-carbonitrile] came in with a melting point of 217.5 °C. The molecule also came in with an EC (150% of control) in data set [1] of 0.08 µM.
Consider `N#Cc1cc(-c2ccnc(F)c2)c2c(c1)cc1n2CCCNC1=O` [Example 220, 7-(2-Fluoropyridin-4-yl)-1-oxo-2,3,4,5-tetrahydro-[1,4]diazepino[1,2-a]indole-9-carbonitrile], for which the melting point came to 275 °C. The EC (150% of control) in data set [1] came to 0.5 µM.
Consider `N#Cc1cc(-c2ccc(F)cc2F)c2c(c1)cc1n2CCCNC1=O` [Example 221, 7-(2,4-Difluorophenyl)-1-oxo-2,3,4,5-tetrahydro-[1,4]diazepino[1,2-a]indole-9-carbonitrile], for which the melting point came to 216.5 °C. Further, the EC (150% of control) in data set [1] came out at 0.073 µM.
On to `N#Cc1cc(-c2cc(F)cc(F)c2)c2c(c1)cc1n2CCNC1=O` [Example 222, 6-(3,5-Difluorophenyl)-1-oxo-3,4-dihydro-2H-pyrazino[1,2-a]indole-8-carbonitrile], for which the melting point came to 264 °C. The same molecule gave an EC (150% of control) in data set [1] of 0.22 µM.
On to `N#Cc1cc(-c2cccc(F)c2)c2c(c1)cc1n2CCNC1=O` [Example 223, 6-(3-Fluorophenyl)-1-oxo-3,4-dihydro-2H-pyrazino[1,2-a]indole-8-carbonitrile], for which the melting point was 248.5 °C. In data set [1], the EC (150% of control) was 0.076 µM.
In turn, `N#Cc1cc(-c2ccc(N)nc2)c2c(c1)cc1n2CCNC1=O` [Example 224, 6-(6-Aminopyridin-3-yl)-1-oxo-3,4-dihydro-2H-pyrazino[1,2-a]indole-8-carbonitrile] gave a melting point of 305 °C. For the same molecule, the EC (150% of control) in data set [1] came to 0.76 µM.
The molecule `N#Cc1cc(-c2cncnc2)c2c(c1)cc1n2CCNC1=O` [Example 225, 1-Oxo-6-pyrimidin-5-yl-3,4-dihydro-2H-pyrazino[1,2-a]indole-8-carbonitrile] had a melting point of 323.5 °C. The same molecule displayed an EC (150% of control) in data set [1] of 1.75 µM.
As for `N#Cc1cc(-c2ccc(Cl)nc2)c2c(c1)cc1n2CCNC1=O` [Example 226, 6-(6-Chloropyridin-3-yl)-1-oxo-3,4-dihydro-2H-pyrazino[1,2-a]indole-8-carbonitrile], the melting point was found to be 300.5 °C. In data set [1], this molecule returned an EC (150% of control) of 2.2 µM.
The like results for `N#Cc1cc(-c2ccnc(Cl)c2)c2c(c1)cc1n2CCNC1=O` [Example 227, 6-(2-Chloropyridin-4-yl)-1-oxo-3,4-dihydro-2H-pyrazino[1,2-a]indole-8-carbonitrile] were, in that order, 286 °C and 0.55 µM.
In the same order, the values of `N#Cc1cc(-c2ccc(CO)cc2)c2c(c1)cc1n2CCNC1=O` [Example 228, 6-[4-(Hydroxymethyl)-phenyl]-1-oxo-3,4-dihydro-2H-pyrazino[1,2-a]indole-8-carbonitrile] are 257.5 °C and 0.041 µM.
In turn, `N#Cc1cc(-c2cccnc2)c2c(c1)cc1n2CCNC1=O` [Example 229, 1-Oxo-6-pyridin-3-yl-3,4-dihydro-2H-pyrazino[1,2-a]indole-8-carbonitrile] showed a melting point of 272.5 °C. This molecule also returned an EC (150% of control) in data set [1] of 0.94 µM.
`CC(C)(C)c1ccc(-c2cc(C#N)cc3cc4n(c23)CCNC4=O)cc1` [Example 230, 6-(4-tert-Butylphenyl)-1-oxo-3,4-dihydro-2H-pyrazino[1,2-a]indole-8-carbonitrile] came in with a melting point of 300 °C. In addition, in data set [1], the EC (150% of control) was found to be 0.14 µM.
In turn, `Cc1cc(-c2cc(C#N)cc3cc4n(c23)CCNC4=O)ccc1F` [Example 231, 6-(4-Fluoro-3-methylphenyl)-1-oxo-3,4-dihydro-2H-pyrazino[1,2-a]indole-8-carbonitrile] came in with a melting point of 290 °C. In addition, the EC (150% of control) in data set [1] turned out to be 0.058 µM.
As to `N#Cc1cc(-c2ccc([N+](=O)[O-])cc2)c2c(c1)cc1n2CCNC1=O` [Example 232, 6-(4-Nitrophenyl)-1-oxo-3,4-dihydro-2H-pyrazino[1,2-a]indole-8-carbonitrile], the melting point amounted to 369.5 °C. The EC (150% of control) in data set [1] turned out to be 0.02 µM.
The like results for `Cc1ccc(-c2cc(C#N)cc3cc4n(c23)CCNC4=O)cc1F` [Example 233, 6-(3-Fluoro-4-methylphenyl)-1-oxo-3,4-dihydro-2H-pyrazino[1,2-a]indole-8-carbonitrile] were, in that order, 278.5 °C and 0.052 µM.
In turn, `N#Cc1cc(-c2ccc([N+](=O)[O-])cc2)c2c(c1)cc1n2CCCNC1=O` [Example 234, 7-(4-Nitrophenyl)-1-oxo-2,3,4,5-tetrahydro-[1,4]diazepino[1,2-a]indole-9-carbonitrile] registered a melting point of 193.5 °C. The molecule also had an EC (150% of control) in data set [1] of 0.21 µM.
As to `Cc1cc(-c2cc(C#N)cc3cc4n(c23)CCCNC4=O)ccc1F` [Example 235, 7-(4-Fluoro-3-methylphenyl)-1-oxo-2,3,4,5-tetrahydro-[1,4]diazepino[1,2-a]indole-9-carbonitrile], the melting point stood at 223.5 °C. The EC (150% of control) in data set [1] was determined as 0.77 µM.
The like results for `N#Cc1cc(-c2ccc(Cl)cc2Cl)c2c(c1)cc1n2CCCNC1=O` [Example 236, 7-(2,4-Dichlorophenyl)-1-oxo-2,3,4,5-tetrahydro-[1,4]diazepino[1,2-a]indole-9-carbonitrile] were, in that order, 253 °C and 0.13 µM.
Molecule `N#Cc1ccc(-c2cc(C#N)cc3cc4n(c23)CCCNC4=O)cc1` [Example 237, 7-(4-Cyanophenyl)-1-oxo-2,3,4,5-tetrahydro-[1,4]diazepino[1,2-a]indole-9-carbonitrile] yielded a melting point of 257 °C. The molecule also registered an EC (150% of control) in data set [1] of 0.22 µM.
Regarding `N#Cc1cc(-c2cc(F)cc(F)c2)c2c(c1)cc1n2CCCNC1=O` [Example 238, 7-(3,5-Difluorophenyl)-1-oxo-2,3,4,5-tetrahydro-[1,4]diazepino[1,2-a]indole-9-carbonitrile], the melting point was determined as 211 °C. In data set [1], this molecule showed an EC (150% of control) of 1 µM.
As for `N#Cc1cc(-c2cccc(F)c2)c2c(c1)cc1n2CCCNC1=O` [Example 239, 7-(3-Fluorophenyl)-1-oxo-2,3,4,5-tetrahydro-[1,4]diazepino[1,2-a]indole-9-carbonitrile], the melting point is 210.5 °C. The same molecule had an EC (150% of control) in data set [1] of 0.61 µM.
In the same order, the values of `Cc1c2n(c3c(-c4cc(F)c(F)c(F)c4)cc(C#N)cc13)CCNC2=O` [Example 240, 10-Methyl-1-oxo-6-(3,4,5-trifluorophenyl)-3,4-dihydro-2H-pyrazino[1,2-a]indole-8-carbonitrile] are 253 °C and 0.11 µM.
In the same order, the values of `Cc1c2n(c3c(-c4ccccc4)cc(C#N)cc13)CCNC2=O` [Example 241, 10-Methyl-1-oxo-6-phenyl-3,4-dihydro-2H-pyrazino[1,2-a]indole-8-carbonitrile] are 253 °C and 0.062 µM.
As for `Cc1c2n(c3c(-c4ccc(N)nc4)cc(C#N)cc13)CCNC2=O` [Example 242, 6-(6-Aminopyridin-3-yl)-10-methyl-1-oxo-3,4-dihydro-2H-pyrazino[1,2-a]indole-8-carbonitrile], the melting point was found to be 332 °C. The same molecule returned an EC (150% of control) in data set [1] of 0.68 µM.
`Cc1c2n(c3c(-c4ccncc4)cc(C#N)cc13)CCNC2=O` [Example 243, 10-Methyl-1-oxo-6-pyridin-4-yl-3,4-dihydro-2H-pyrazino[1,2-a]indole-8-carbonitrile]: the melting point was 307 °C. Also, the EC (150% of control) in data set [1] came out at 0.09 µM.
With `Cc1c2n(c3c(-c4cc(F)c(F)c(F)c4)cc(C#N)cc13)CCCNC2=O` [Example 244, 11-Methyl-1-oxo-7-(3,4,5-trifluorophenyl)-2,3,4,5-tetrahydro-[1,4]diazepino[1,2-a]indole-9-carbonitrile], the melting point was determined as 306 °C. Further, the EC (150% of control) in data set [1] was found to be 0.47 µM.
On to `Cc1c2n(c3c(-c4ccccc4)cc(C#N)cc13)CCCNC2=O` [Example 245, 11-Methyl-1-oxo-7-phenyl-2,3,4,5-tetrahydro-[1,4]diazepino[1,2-a]indole-9-carbonitrile], for which the melting point was determined as 258 °C. Besides, in data set [1], the EC (150% of control) was 0.095 µM.
Molecule `Cc1c2n(c3c(-c4ccc(F)c(F)c4F)cc(C#N)cc13)CCNC2=O` [Example 246, 10-Methyl-1-oxo-6-(2,3,4-trifluorophenyl)-3,4-dihydro-2H-pyrazino[1,2-a]indole-8-carbonitrile] displayed a melting point of 238 °C. Besides, in data set [1], the EC (150% of control) worked out at 0.084 µM.
Take `COc1ccc(-c2cc(C#N)cc3c(C)c4n(c23)CCNC4=O)cc1` [Example 247, 6-(4-Methoxyphenyl)-10-methyl-1-oxo-3,4-dihydro-2H-pyrazino[1,2-a]indole-8-carbonitrile]: the melting point was 285 °C. Also, the EC (150% of control) in data set [1] came out at 0.03 µM.
In the case of `N#Cc1cc(-c2cc(F)c(F)c(F)c2)c2c(c1)cc1n2CCCNC1=O` [Example 248, 1-Oxo-7-(3,4,5-trifluorophenyl)-2,3,4,5-tetrahydro-[1,4]diazepino[1,2-a]indole-9-carbonitrile], the melting point is 248.5 °C. In data set [1], this molecule came in with an EC (150% of control) of 0.62 µM.
